According to patent publication US20030162222A1, “Method for selecting enzyme inhibitors” (priority 2000, published 2003):

How the values were obtained:
[1] = test system: 32D cells which express the mutant Bcr-Abl T315M; experiment: Proliferation and survival of 32D cells expressing mutant Bcr-Abl T315M in the absence of interleukin-3; type: cell-based, murine; details: 32D cells expressing Bcr-Abl T315M; no interleukin-3; PP1 25 μM or STI571 1 μM
Description: (§1) Bcr-Abl is a constitutionally active tyrosine kinase which induces different forms of leukaemia in the animal model and humans.
(§2) The example is carried out by transfixing 32D cells with a plasmid by electroporation, i.e. with the aid of a current pulse. The plasmid codes for either wt Bcr-Abl or e.g. for the mutant T315M. These plasmids additionally carry a resistance marker; in this case a puromycin resistance gene. Transfixed cells are therefore selected by means of puromycin.
(§3) The cells are then characterised biologically. For this purpose interleukin-3 is removed from them as an essential survival and growth factor.
(§4) Both substances prevent both proliferation and survival of cells which express Bcr-Abl wt, and do so to the same extent (FIGS. 17 and 18).

[2] = test system: 32D cells which express wt Bcr-Abl; experiment: Proliferation and survival of 32D cells expressing wt Bcr-Abl in the absence of interleukin-3; type: cell-based, murine; details: 32D cells expressing Bcr-Abl wt; no interleukin-3; PP1 25 μM or STI571 1 μM
Description: as §1, §2, §3, §4

Src kinases = details: partly from the literature; cited from earlier work

Cc1ccc(-c2nn(C(C)(C)C)c3ncnc(N)c23)cc1 [PP1]
proliferation (cell growth) [1]: complete cessation of cell growth
proliferation of cells [2]: prevent
inhibition of Src kinases (Src kinases): inhibited
